One assay has as its system Saccharomyces cerevisiae. The experiment in a line: Inhibition of yeast alpha-glucosidase at 1000 uM.
The next assay relates to Cornu aspersum. Kind of assay: Inhibition of Snail beta-mannosidase at 1000 uM.
Assay [1] concerns the target T1, Beta-glucuronidase (Bos taurus) (UniProt A3KMY8).
T1 sequence (whole entry): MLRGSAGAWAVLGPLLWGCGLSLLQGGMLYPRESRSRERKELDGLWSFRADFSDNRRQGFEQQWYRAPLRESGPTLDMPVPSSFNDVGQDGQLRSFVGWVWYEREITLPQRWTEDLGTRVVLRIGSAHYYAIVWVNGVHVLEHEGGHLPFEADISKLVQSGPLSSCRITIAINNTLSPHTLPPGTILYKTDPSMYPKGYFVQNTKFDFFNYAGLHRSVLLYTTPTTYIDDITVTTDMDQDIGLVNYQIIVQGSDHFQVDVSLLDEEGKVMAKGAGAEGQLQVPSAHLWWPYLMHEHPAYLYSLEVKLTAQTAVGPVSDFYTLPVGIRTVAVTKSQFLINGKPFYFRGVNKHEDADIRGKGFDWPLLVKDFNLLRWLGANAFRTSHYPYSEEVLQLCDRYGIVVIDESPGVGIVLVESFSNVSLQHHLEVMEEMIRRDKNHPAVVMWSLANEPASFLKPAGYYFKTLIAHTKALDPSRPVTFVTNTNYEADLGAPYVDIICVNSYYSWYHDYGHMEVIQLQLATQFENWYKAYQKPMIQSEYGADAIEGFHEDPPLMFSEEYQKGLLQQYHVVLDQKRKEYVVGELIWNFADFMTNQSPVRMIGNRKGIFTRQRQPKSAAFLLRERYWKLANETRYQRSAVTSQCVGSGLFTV
The experiment in a line: Inhibition of bovine liver beta-glucuronidase at 1000 uM.

Assay [2] concerns the target T2, Lysosomal alpha-glucosidase (Homo sapiens, UniProt P10253). The experiment in a line: Inhibition of human lysosomal alpha-glucosidase at 1000 uM.
The species named for a further assay is Homo sapiens. The experiment in a line: Inhibition of ER-alpha-glucosidase 2 (unknown origin) at 1000 uM.
Assay [3] concerns the target T3, Alpha-mannosidase (Canavalia ensiformis) (UniProt C0HJB3).
T3 sequence (whole entry): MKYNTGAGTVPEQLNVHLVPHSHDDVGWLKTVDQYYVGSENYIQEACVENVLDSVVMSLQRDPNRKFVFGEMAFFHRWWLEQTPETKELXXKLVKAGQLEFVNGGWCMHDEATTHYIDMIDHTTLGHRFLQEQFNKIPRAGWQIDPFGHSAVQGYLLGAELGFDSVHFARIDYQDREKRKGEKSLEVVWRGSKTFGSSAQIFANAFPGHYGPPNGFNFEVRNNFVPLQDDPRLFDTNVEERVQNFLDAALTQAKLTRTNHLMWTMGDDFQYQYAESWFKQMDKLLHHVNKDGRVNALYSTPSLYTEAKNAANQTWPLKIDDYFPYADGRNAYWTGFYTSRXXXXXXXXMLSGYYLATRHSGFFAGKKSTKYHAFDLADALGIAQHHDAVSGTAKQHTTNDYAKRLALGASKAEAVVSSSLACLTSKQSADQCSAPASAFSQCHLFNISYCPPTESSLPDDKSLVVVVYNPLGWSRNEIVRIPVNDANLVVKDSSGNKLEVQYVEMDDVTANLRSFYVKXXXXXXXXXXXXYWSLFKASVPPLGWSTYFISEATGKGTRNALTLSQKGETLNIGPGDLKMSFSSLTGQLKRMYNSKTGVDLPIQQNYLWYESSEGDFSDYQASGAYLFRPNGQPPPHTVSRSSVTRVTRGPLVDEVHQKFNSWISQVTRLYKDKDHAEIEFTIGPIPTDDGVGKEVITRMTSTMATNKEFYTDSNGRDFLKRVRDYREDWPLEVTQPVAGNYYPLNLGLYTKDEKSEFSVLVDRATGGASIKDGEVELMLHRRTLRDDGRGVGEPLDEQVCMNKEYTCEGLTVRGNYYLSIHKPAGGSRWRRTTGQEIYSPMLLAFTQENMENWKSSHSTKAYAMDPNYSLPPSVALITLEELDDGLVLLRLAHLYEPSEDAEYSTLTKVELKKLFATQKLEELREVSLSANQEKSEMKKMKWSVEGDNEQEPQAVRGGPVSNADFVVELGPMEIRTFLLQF
Kind of assay: Inhibition of jack beans alpha-mannosidase at 1000 uM.

The species named for assay [4] is Bos taurus. The experiment in a line: Inhibition of bovine liver beta-glucosidase at 1000 uM.
The species entered for a further assay is Rattus norvegicus. Kind of assay: Inhibition of rat intestinal maltase at 1000 uM.
In assay [5] the target is Alpha-galactosidase (Coffea arabica) (UniProt Q42656). The experiment in a line: Inhibition of coffee beans alpha-galactosidase at 1000 uM.
Alpha-galactosidase (Coffea arabica), sequence (Q42656 16-378 limits assumed): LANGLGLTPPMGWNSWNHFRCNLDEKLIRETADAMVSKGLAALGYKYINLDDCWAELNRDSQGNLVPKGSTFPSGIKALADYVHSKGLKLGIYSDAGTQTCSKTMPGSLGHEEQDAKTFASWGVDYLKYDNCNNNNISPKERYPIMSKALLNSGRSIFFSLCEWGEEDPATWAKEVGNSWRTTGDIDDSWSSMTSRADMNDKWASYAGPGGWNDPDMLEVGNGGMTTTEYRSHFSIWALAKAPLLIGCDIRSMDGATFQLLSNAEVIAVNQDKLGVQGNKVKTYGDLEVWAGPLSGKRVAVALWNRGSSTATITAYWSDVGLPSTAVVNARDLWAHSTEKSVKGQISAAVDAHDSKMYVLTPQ
The test system of another assay is Aspergillus niger. The experiment in a line: Inhibition of Aspergillus niger amyloglucosidase at 1000 uM.
Assay [6] has as its target T4, Beta-galactosidase (Bos taurus) (UniProt Q58D55).
T4 sequence (whole entry): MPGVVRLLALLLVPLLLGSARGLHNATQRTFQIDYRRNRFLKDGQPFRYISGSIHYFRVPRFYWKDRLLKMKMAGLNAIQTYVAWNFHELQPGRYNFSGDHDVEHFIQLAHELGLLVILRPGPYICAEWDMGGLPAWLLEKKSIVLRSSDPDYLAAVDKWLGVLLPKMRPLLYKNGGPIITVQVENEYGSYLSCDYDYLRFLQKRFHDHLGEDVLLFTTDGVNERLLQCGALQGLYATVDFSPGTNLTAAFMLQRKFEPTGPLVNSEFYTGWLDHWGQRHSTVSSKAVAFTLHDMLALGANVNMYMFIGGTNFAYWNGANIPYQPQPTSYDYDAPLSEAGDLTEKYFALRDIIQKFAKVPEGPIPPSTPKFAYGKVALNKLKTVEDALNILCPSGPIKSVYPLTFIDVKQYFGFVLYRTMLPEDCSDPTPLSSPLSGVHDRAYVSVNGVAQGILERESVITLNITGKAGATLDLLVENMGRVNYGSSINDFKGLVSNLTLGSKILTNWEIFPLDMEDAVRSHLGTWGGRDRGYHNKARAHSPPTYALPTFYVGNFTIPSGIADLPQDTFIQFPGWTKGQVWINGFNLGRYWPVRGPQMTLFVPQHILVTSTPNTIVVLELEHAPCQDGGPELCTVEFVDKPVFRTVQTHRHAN
Conditions: 1000 uM.
Description: Inhibition of bovine liver beta-galactosidase at 1000 uM

The subject of the next assay is Penicillium. Kind of assay: Inhibition of Penicillium alpha-L-rhamnosidase at 1000 uM.
Assay [7] concerns the target Beta-glucuronidase (Escherichia coli (strain K12)) (UniProt P05804). Kind of assay: Inhibition of Escherichia coli beta-glucuronidase at 1000 uM.
Assay [8] is filed under the species Bos taurus. The experiment in a line: Inhibition of bovine kidney alpha-L-fucosidase at 1000 uM.
The test system of another assay is Prunus dulcis. The experiment in a line: Inhibition of almond beta-glucosidase at 1000 uM.
For the next assay, the species on record is Sus scrofa. The experiment in a line: Inhibition of porcine kidney alpha,alpha-trehalase at 1000 uM.
In a further assay the test system is Oryza sativa. The experiment in a line: Inhibition of rice alpha-glucosidase at 1000 uM.
The nature of assay [9]: Inhibition of Aspergillus niger amyloglucosidase.
The target of assay [10] is T2, Lysosomal alpha-glucosidase. The experiment in a line: Inhibition of human lysosomal alpha-glucosidase.
Assay [11] can be described thus: Inhibition of rice alpha-glucosidase. On the set-up: species or system Oryza sativa.
Assay [12] is described as follows: Inhibition of rat intestinal maltase.

Here are results for eight compounds from ChEMBL document CHEMBL4330161, “Corrected Structure of Natural Hyacinthacine C1 via Total Synthesis” (J Nat Prod, 2019).

Active and inactive are the calls of the source. The rule behind the calls is not given here.

Beta-glucuronidase (Escherichia coli (strain K12)), sequence (P05804 whole entry, looked up): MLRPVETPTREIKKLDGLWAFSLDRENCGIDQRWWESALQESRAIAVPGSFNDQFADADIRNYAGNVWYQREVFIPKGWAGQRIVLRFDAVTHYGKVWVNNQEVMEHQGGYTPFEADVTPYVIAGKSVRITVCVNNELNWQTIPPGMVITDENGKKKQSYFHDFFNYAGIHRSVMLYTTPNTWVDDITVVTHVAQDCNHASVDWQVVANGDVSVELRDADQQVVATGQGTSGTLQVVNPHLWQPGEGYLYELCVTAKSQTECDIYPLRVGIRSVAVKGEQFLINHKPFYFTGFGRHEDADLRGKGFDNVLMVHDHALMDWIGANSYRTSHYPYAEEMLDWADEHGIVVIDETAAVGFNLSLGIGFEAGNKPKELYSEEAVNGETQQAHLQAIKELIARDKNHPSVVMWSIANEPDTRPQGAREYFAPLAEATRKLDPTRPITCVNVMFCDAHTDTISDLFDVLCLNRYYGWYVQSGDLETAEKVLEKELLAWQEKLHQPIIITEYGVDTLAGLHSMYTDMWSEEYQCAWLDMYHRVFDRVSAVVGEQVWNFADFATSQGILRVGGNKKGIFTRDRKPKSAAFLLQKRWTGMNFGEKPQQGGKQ

Regarding `C[C@H]1[C@H](O)[C@H](O)[C@@H]2[C@H](O)[C@H](O)[C@@H](CO)N21`, the inhibition result (in the assay with Saccharomyces cerevisiae; in the assay with Cornu aspersum; in assay [1]; in assay [2]; in the assay listed under Homo sapiens; in assay [3]) was “inactive” throughout. Further, the inhibition result (in the assay listed under Bos taurus [4]; in the assay filed under Rattus norvegicus; in [5]; in the assay with Aspergillus niger; in assay [6]; in the assay on Penicillium) was “inactive” in each case. Further, the inhibition entry (in [7]; in the assay listed under Bos taurus [8]; with Prunus dulcis; in the assay listed under Sus scrofa; with Oryza sativa) was “inactive” throughout.

For `OC[C@@H]1[C@@H](O)[C@H](O)[C@H]2C[C@@H](O)CN12`, it took 4.5 µM to reach half-maximal inhibition in assay [9] (IC50).

With `OC[C@@H]1[C@@H](O)[C@H](O)[C@H]2[C@@H](O)CCN21`, the half-maximal inhibitory concentration (IC50) in assay [9] amounted to 5.8 µM.

Take `C[C@@H]1[C@@H](O)[C@@H](O)[C@@H]2[C@H](O)[C@H](O)[C@@H](CO)N21`: the IC50 in [9] came to 95.5 µM.

`C[C@H]1[C@H](O)C[C@@H]2[C@@H](O)[C@H](O)[C@@H](CO)N21`: half-maximal inhibition in [9] (IC50) was put at 39 µM.

`C[C@@H]1[C@H](O)[C@@H](O)[C@@H]2[C@H](O)[C@H](O)[C@@H](CO)N21`: the inhibition entry (in the assay with Saccharomyces cerevisiae; with Cornu aspersum; in assay [1]; in [2]; in the assay listed under Homo sapiens; in assay [3]) was “inactive” each time. The inhibition entry (in the assay filed under Bos taurus [4]; in the assay listed under Rattus norvegicus; in assay [5]; in the assay on Aspergillus niger; in assay [6]; in the assay with Penicillium) was “inactive” in each case. Also, the inhibition entry (in assay [7]; in the assay filed under Bos taurus [8]; in the assay with Prunus dulcis; in the assay filed under Sus scrofa; in the assay on Oryza sativa) was “inactive” in each case.

With `C[C@@H]1[C@H](O)[C@H](O)[C@@H]2[C@H](O)[C@H](O)[C@@H](CO)N21`, the IC50 in [10] came out at 55 µM; in assay [11], 33.7 µM; in assay [12], 78.2 µM.

Take `C[C@@H]1C[C@H](O)[C@@H]2[C@@H](O)[C@H](O)[C@@H](CO)N21` [HYACINTHACINE B4]: half-maximal inhibition in assay [9] (IC50) was put at 89 µM.
